Laboratory results published in patent US20050143391A1, “Heterocyclic amides with alpha-4 integrin antagonist activity” (J. Uriach Y Compañia S.A., priority 2002, published 2005).

These compounds were tested against T1, integrin α4β1 (Homo sapiens, UniProt P05556+P13612) (assay: Inhibition of α4β1-dependent cell adhesion (Jurkat cells to peptide CS-1)). Settings: adhesion of Jurkat cells to CS-1-coated plates; products preincubated with cells at 37° C. for 30 minutes; at least 6 product concentrations.
T1 construct: endogenous in cells; host or cells: Jurkat cells
Assay type: cell-based
Description: Inhibition of α4β1-Dependent Cell Adhesion
Inhibition of α4β1-dependent cell adhesion was assayed by evaluating the interaction between the peptide CS-1 (H-CLHGPEILDVPST-CONH2) and Jurkat cells (T lymphocyte cell line expressing activated integrin α4β1 but not integrin α4β7) after preincubation of said cells with the compounds of formula I to be tested. The peptide CS-1 was synthesized by conventional solid phase chemistry and purified by HPLC. Its identity was determined by elemental analysis and mass spectroscopy.
1.—Preparation of CS-1-Coated Plates
96-black well plates (Costar 3925) were used. 200 μL of 2% bovine serum albumin solution (BSA, Sigma α4503) was added per well and the plate was incubated for 2 hours at 37° C. The solution was discarded and the plate was washed twice with 200 μL of phosphate buffered saline solution (PBS, Gibco 14190-094) per well. Then, 200 μL of 10 μg/mL N-succinimidyl 3-(2-pyridyldithio)propionate solution (SPDP, Sigma P-3415) was added per well, and the plate was incubated at 37° C. for 30 minutes. The remaining solution was discarded and the plate was twice washed with 200 μL per well of PBS. Next, 200 μL of 25 μg/mL CS-1 peptide solution (equivalent to 5 μg/well) was added per well and the plate was incubated at 37° C. for 2 hours and then overnight at 4° C.
2.—Jurkat Cell Line: Culture and Fluorescent Labelling
Jurkat cells were kept in culture at a density comprised between 2×10^5 and 1.5×10^6 cells/mL in 1640 RPMI medium (Gibco 21875-034) enriched with 10% fetal calf serum (FCS, Gibco 10270-106).
50×10^6 cells were extracted, centrifuged (1200 rpm, 10 min, room temperature) and the medium was discarded. Cells were resuspended in 5 mL of RPMI, and 10 μL of a 1 mM solution of the fluorophore calceine.AM (Molecular Probes, C-3100) was added. The suspension was incubated for 30 min at 37° C. in the darkness, with occasional shaking. 40 mL of RPMI was added to stop the labelling and the suspension was centrifuged (1200 rpm, 10 min, room temperature). The medium was discarded, and the labelled cells were washed with 40 mL of RPMI in order to remove the unincorporated fluorescent probe. Finally, cells were resuspended in RPMI enriched with 10% FCS to obtain a 8×10^6 cells/mL suspension.
The plate previously prepared was twice washed with 200 μL per well of PBS and blocked with 200 μL of 1% BSA for at least 1 hour at room temperature.
The products to be tested were dissolved in dimethylsulfoxide at a concentration of 10 mM and dilutions thereof were prepared in RPMI medium enriched with 10% FCS. The products were preincubated with the Jurkat cells at 37° C. for 30 minutes, at a product concentration comprised between 1 nM and 10 μM, at a cell density of 4×10^6 cells/mL and at a maximal dimethylsulfoxide concentration of 0.1%.
100 μL of the resulting cell-product supsension was added per well (cellular density 4×10^5 cells/well). The product was omitted in the control wells and cells or CS-1 were omitted in the blanks. The plate was incubated for 60 min at room temperature in the-darkness, was twice washed with 200 μL per well of RPMI and then 100 μL of PBS was added. The plate was read with a fluorescence reader at an excitation wavelength of 485 nm and at an emission wavelength of 530 nm.
Maximal adhesion (100%) was determined as the average of the fluorescence intensities (FI) of the control wells, and the minimal adhesion as the average FI of the blanks. The adhesion inhibition percentage was determined using the following formula: [formula]
The results are expressed as the IC50 values (concentration producing 50% inhibition). IC50 values were calculated by testing at least 6 product concentrations and by adjusting the inhibition percentages to a dose-response curve of variable slope.

T1 sequence (P13612 34-1032): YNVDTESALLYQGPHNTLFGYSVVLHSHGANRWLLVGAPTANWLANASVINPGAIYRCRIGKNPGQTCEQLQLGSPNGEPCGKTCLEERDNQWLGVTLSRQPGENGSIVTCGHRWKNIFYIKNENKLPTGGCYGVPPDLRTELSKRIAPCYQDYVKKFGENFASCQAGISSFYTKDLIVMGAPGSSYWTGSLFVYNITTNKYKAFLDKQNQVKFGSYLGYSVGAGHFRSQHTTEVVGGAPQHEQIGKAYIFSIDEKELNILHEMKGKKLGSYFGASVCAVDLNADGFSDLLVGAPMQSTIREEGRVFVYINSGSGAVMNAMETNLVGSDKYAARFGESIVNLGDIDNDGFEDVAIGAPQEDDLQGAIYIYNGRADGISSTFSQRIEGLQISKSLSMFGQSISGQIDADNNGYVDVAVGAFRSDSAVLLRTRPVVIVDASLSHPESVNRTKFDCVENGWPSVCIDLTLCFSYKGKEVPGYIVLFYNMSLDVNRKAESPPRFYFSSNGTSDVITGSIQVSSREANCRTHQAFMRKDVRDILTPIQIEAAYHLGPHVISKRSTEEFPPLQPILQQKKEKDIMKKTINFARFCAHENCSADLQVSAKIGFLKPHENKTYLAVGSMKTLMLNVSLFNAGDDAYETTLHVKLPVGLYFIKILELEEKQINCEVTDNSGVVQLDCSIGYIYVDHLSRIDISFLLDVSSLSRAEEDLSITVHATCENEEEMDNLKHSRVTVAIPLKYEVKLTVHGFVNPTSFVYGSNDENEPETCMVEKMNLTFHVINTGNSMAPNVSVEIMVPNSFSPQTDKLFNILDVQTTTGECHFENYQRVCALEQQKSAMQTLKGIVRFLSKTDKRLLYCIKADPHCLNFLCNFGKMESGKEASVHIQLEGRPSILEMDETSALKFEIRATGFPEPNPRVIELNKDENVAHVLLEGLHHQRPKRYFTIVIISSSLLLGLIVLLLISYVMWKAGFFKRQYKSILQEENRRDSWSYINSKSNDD
T1 sequence (P05556 21-798): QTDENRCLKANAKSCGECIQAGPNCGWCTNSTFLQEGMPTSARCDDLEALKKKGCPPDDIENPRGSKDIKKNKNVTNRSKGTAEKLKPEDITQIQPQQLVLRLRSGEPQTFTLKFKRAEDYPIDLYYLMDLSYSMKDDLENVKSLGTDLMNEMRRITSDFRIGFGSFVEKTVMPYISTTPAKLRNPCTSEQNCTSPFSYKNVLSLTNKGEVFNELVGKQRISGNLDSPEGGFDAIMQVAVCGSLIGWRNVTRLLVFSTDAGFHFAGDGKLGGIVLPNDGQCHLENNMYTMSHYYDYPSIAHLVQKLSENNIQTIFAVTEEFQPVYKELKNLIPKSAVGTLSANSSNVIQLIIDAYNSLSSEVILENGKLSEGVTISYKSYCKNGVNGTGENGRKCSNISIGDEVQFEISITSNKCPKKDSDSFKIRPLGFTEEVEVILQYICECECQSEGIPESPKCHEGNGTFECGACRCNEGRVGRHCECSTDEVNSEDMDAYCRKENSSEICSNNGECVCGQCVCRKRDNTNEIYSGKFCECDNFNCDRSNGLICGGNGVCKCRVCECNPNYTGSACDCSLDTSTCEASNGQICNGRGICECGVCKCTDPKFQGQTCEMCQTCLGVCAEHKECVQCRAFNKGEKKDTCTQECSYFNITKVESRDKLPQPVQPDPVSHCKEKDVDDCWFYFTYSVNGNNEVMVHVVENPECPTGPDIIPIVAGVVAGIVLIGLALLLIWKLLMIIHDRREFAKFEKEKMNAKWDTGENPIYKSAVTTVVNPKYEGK

Row | IC50 [nM] | Structure (SMILES)
1 | 22 | O=C(O)[C@H](CCC(=O)N1CCC(CN2Cc3ccccc3C2=O)CC1)NC(=O)[C@@H]1CCCN1S(=O)(=O)c1cc(Cl)cc(Cl)c1 [Example 54, (2S)-5-[4-[(1-Oxoisoindolin-2-yl)methyl]piperidin-1-yl]-2-[1-(3,5-dichlorophenylsulfonyl)-L-prolylamino]-5-oxopentanoic Acid]
2 | 58 | CC(C)CC(=O)NCC1CCN(C(=O)CC[C@H](NC(=O)[C@@H]2CCCN2S(=O)(=O)c2cc(Cl)cc(Cl)c2)C(=O)O)CC1 [Example 55, (2S)-2-[1-(3,5-Dichlorophenylsulfonyl)-L-prolylamino]-5-[4-[(3-methylbutanoylamino)methyl]piperidin-1-yl]-5-oxopentanoic Acid]
3 | 23 | CC(C)(C)NC(=O)NCC1CCN(C(=O)CC[C@H](NC(=O)[C@@H]2CCCN2S(=O)(=O)c2cc(Cl)cc(Cl)c2)C(=O)O)CC1 [Example 56, (2S)-5-[4-[(N′-tert-Butylureido)methyl]piperidin-1-yl]-2-[1-(3,5-dichlorophenylsulfonyl)-L-prolylamino]-5-oxopentanoic Acid]
4 | 166 | CC(C)NC(=S)NCC1CCN(C(=O)CC[C@H](NC(=O)[C@@H]2CCCN2S(=O)(=O)c2cc(Cl)cc(Cl)c2)C(=O)O)CC1 [Example 58, (2S)-2-[1-(3,5-Dichlorophenylsulfonyl)-L-prolylamino]-5-[4-[(N′-isopropylthioureido)methyl]piperidin-1-yl]-5-oxopentanoic Acid]
5 | 13.3 | CCc1nc2c(C)cc(C)nc2n1CCC1CCN(C(=O)CC[C@H](NC(=O)[C@@H]2CCCN2S(=O)(=O)c2cc(Cl)cc(Cl)c2)C(=O)O)CC1 [Example 59, (2S)-2-[1-(3,5-Dichlorophenylsulfonyl)-L-prolylamino]-5-[4-[2-(2-ethyl-5,7-dimethylimidazo[4,5-b]pyridin-3-yl)ethyl]piperidin-1-yl]-5-oxopentanoic Acid]
6 | 11.6 | CC(C)S(=O)(=O)NCC1CCN(C(=O)CC[C@H](NC(=O)[C@@H]2CCCN2S(=O)(=O)c2cc(Cl)cc(Cl)c2)C(=O)O)CC1 [Example 60, (2S)-2-[1-(3,5-Dichlorophenylsulfonyl)-L-prolylamino]-5-[4-[(isopropylsulfonylamino)methyl]piperidin-1-yl]-5-oxopentanoic Acid]
7 | 2.3 | O=C(O)[C@H](CCC(=O)N1CCC(CCOC(=O)N2CCCC2)CC1)NC(=O)[C@@H]1CCCN1S(=O)(=O)c1cc(Cl)cc(Cl)c1 [Example 61, (2S)-2-[1-(3,5-Dichlorophenylsulfonyl)-L-prolylamino]-5-oxo-5-[4-[2-(pyrrolidin-1-ylcarbonyloxy)ethyl]piperidin-1-yl]pentanoic Acid]
8 | 188 | Cc1ccc(S(=O)(=O)N2CCC[C@H]2C(=O)N[C@@H](CCC(=O)N2CCC(CN3CCCC3=O)CC2)C(=O)O)cc1 [Example 62, (2S)-5-Oxo-5-[4-[(2-oxopyrrolidin-1-yl)methyl]piperidin-1-yl]-2-[1-tosyl-L-prolylamino]pentanoic Acid]
9 | 198 | Cc1ccc(S(=O)(=O)N2CCC[C@H]2C(=O)N[C@@H](CCC(=O)N2CCC(Cn3ccnc3-c3ccccc3)CC2)C(=O)O)cc1 [Example 63, (2S)-5-Oxo-5-[4-(2-phenylimidazol-1-ylmethyl)piperidin-1-yl]-2-[1-tosyl-L-prolylamino]pentanoic Acid]
10 | 193 | Cc1ccc(S(=O)(=O)N2CCC[C@H]2C(=O)N[C@@H](CCC(=O)N2CCC(CNc3nccc(C(F)(F)F)n3)CC2)C(=O)O)cc1 [Example 64, (2S)-5-Oxo-2-[1-tosyl-L-prolyl]amino-5-[4-[[4-(trifluoromethyl)pyrimidin-2-yl]aminomethyl]piperidin-1-yl]pentanoic Acid]
11 | 45 | CCc1nc2c(C)cc(C)nc2n1CC1CCN(C(=O)CC[C@H](NC(=O)[C@@H]2CCCN2S(=O)(=O)c2cc(Cl)cc(Cl)c2)C(=O)O)CC1 [Example 65]
12 | 3.5 | COCCNC(=O)OCCC1CCN(C(=O)CC[C@H](NC(=O)[C@@H]2CCCN2S(=O)(=O)c2cc(Cl)cc(Cl)c2)C(=O)O)CC1 [Example 66]
13 | 33 | O=C(O)[C@H](CCC(=O)N1CCC(CNC(=O)N2CCOCC2)CC1)NC(=O)[C@@H]1CCCN1S(=O)(=O)c1cc(Cl)cc(Cl)c1 [Example 67, (2S)-2-[1-(3,5-Dichlorophenylsulfonyl)-L-prolylamino]-5-[4-(4-morpholinylcarbonylaminomethyl)piperidin-1-yl]-5-oxopentanoic Acid]
14 | 17 | O=C(O)[C@H](CCC(=O)N1CCC(CN2CCOC2=O)CC1)NC(=O)[C@@H]1CCCN1S(=O)(=O)c1cc(Cl)cc(Cl)c1 [Example 70, (2S)-2-[1-(3,5-Dichlorophenylsulfonyl)-L-prolylamino]-5-oxo-5-[4-(2-oxooxazolidin-3-ylmethyl)piperidin-1-yl]pentanoic Acid]
15 | 37 | O=C(O)[C@H](CCC(=O)N1CCC(CN2CCCC2=O)CC1)NC(=O)[C@@H]1CCCN1S(=O)(=O)c1cc(Cl)cc(Cl)c1 [Example 71, (2S)-2-[1-(3,5-Dichlorophenylsulfonyl)-L-prolylamino]-5-[4-(2-oxopyrrolidin-1-ylmethyl)piperidin-1-yl]-5-oxopentanoic Acid]
16 | 15 | Cc1nc2cnccc2n1CC1CCN(C(=O)CC[C@H](NC(=O)[C@@H]2CCCN2S(=O)(=O)c2cc(Cl)cc(Cl)c2)C(=O)O)CC1 [Example 72, (2S)-2-[1-(3,5-Dichlorophenylsulfonyl)-L-prolylamino]-5-[4-(2-methylimidazo[4,5-c]pyridin-1-ylmethyl)piperidin-1-yl]-5-oxopentanoic Acid]
17 | 57 | Cc1ccc(S(=O)(=O)N2CCC[C@H]2C(=O)N[C@@H](CCC(=O)N2CCC(Cn3c(C)nc4cnccc43)CC2)C(=O)O)cc1 [Example 73, (2S)-5-[4-(2-Methylimidazo[4,5-c]pyridin-1-ylmethyl)piperidin-1-yl]-5-oxo-2-[1-tosyl-L-prolylamino]pentanoic Acid]
18 | 48 | CCOCCn1c(CN2CCN(C(=O)CC[C@H](NC(=O)[C@@H]3CCCN3S(=O)(=O)c3ccc(C)cc3)C(=O)O)CC2)nc2ccccc21 [Example 74, (2S)-5-[4-[[1-(2-Ethoxyethyl)benzimidazol-2-yl]methyl]piperazin-1-yl]-5-oxo-2-[[1-tosyl-L-prolyl]amino]pentanoic Acid]
19 | 101 | Cc1ccc(S(=O)(=O)N2CCC[C@H]2C(=O)N[C@@H](CCC(=O)N2CCN(Cc3ccccn3)CC2)C(=O)O)cc1 [Example 75, (2S)-5-Oxo-5-[4-(2-pyridylmethyl)piperazin-1-yl]-2-[[1-tosyl-L-prolyl]amino]pentanoic Acid]
20 | 67 | Cc1ccc(S(=O)(=O)N2CCC[C@H]2C(=O)N[C@@H](CCC(=O)N2CCC(CN3Cc4ccccc4C3=O)CC2)C(=O)O)cc1 [Example 76, (2S)-5-Oxo-5-[4-(1-oxoisoindolin-2-ylmethyl)piperidin-1-yl]-2-[[1-tosyl-L-prolyl]amino]pentanoic Acid]
21 | 247 | Cc1ccc(S(=O)(=O)N2CCC[C@H]2C(=O)N[C@@H](CCC(=O)N2CCN(Cc3cccs3)CC2)C(=O)O)cc1 [Example 77, (2S)-5-Oxo-5-[4-(2-thienylmethyl)piperazin-1-yl]-2-[[1-tosyl-L-prolyl]amino]pentanoic Acid]
22 | 7.6 | CN1CCN(CC2CCN(C(=O)CC[C@H](NC(=O)[C@@H]3CCCN3S(=O)(=O)c3cc(Cl)cc(Cl)c3)C(=O)O)CC2)CC1 [Example 79, (2S)-2-[1-(3,5-Dichlorophenylsulfonyl)-L-prolylamino]-5-[4-(4-methylpiperazin-1-ylmethyl)piperidin-1-yl]-5-oxopentanoic Acid]
